Laboratory results from paper PMC10988555, “Exploiting Co(III)-Cyclopentadienyl Complexes To Develop Anticancer Agents” (Inorganic Chemistry, 2024).

What was measured:
[1] = test system: normal human primary dermal fibroblasts; assay: Antiproliferative activity, MTS assay, healthy fibroblasts; assay type: cell-based; settings: 48 h exposure, healthy human cells
Method: (§1) Human colorectal carcinoma cell line (HCT116), human breast cancer cell lines (MDA-MB-231 and MCF-7), and normal human primary dermal fibroblasts neonatal (PCS-201-010) cell line were grown in DMEM (Dulbecco’s modified Eagle’s medium) (Invitrogen Corp., Grand Island, NY, USA) supplemented with 10% (v/v) fetal bovine serum and 1% (v/v) antibiotic/antimycotic solution (Invitrogen Corp.). The human ovarian carcinoma (A2780) cell line was cultivated using RPMI (Roswell Park Memorial Institute) medium supplemented as in DMEM medium. The supplemented medium is named a complete medium. Cells were grown in an incubator with a humidified atmosphere at 5% (v/v) CO2 and 37 °C. All cell lines were purchased from ATCC (ATCC, American Type Culture Collection).
(§2) The evaluation of the cytotoxic potential of complexes 1–4 was obtained through in vitro measurements of the antiproliferative activity of these complexes. Cells were plated in 96-well plates at 7.5 × 10^4 cells/mL and incubated at 37 °C with 5% (v/v) CO2. After 24 h, the culture medium was replaced with fresh medium (100 μL) containing 0.1–50 μM of the different complexes and incubated for 48 h in tumor cell lines or containing 0.1–100 μM of the different complexes and incubated for 48 h in fibroblasts. […] The fibroblast cell line was used as a control of the cytotoxicity of the complexes for healthy cells. Cell viability was evaluated using Cell Titer 96 Aqueous Non-Radioactive Cell Proliferation Assay (Promega, Madison, WI, USA) using 3-(4,5-dimethylthiazol-2-yl)-5-(3-carboxymethoxyphenyl)-2-(4-sulfophenyl)-2H-tetrazolium inner salt (MTS), as described previously.[60] In metabolically active cells, enzymes present in the mitochondria catalyze a reaction in which NADPH/NADH is produced. These enzymes reduce the MTS reagent into a brownish product, Formazan, which can be quantified by measuring the absorbance at 490 nm. The quantity of formazan produced is directly proportional to the number of viable cells in the culture. This quantification was executed with a Biorad microplate reader Model 680 (Bio-Rad, Hercules, CA, USA). Half maximal inhibitory concentration (IC50) was calculated using GraphPad Prism 6 (GraphPadSoftware). We have calculated the ratio between the IC50 of fibroblasts and the IC50 of HCT116, A2780, MDA-MB-231, or MCF-7 cell lines for complexes 1–4 that was named herein as the Selectivity index (SI). To ensure the solubility of the complexes in all biological assays, complex solutions were freshly prepared and well solubilized before addition to the cells.

[2] = test system: A2780 cell line; assay: Internalization of cobalt by ICP-AES; assay type: cell-based, human; settings: A2780, 10× IC50, ICP-AES, cellular fraction
Method: Internalization of the cobalt complexes was evaluated by ICP-AES in the A2780 cell line. For this, the A2780 cell line was seeded in 25 cm^2 T-flasks at a density of 5 × 10^5 cells/T-flask and incubated for 24 h at 37 °C with 5% (v/v) CO2. […] Cells were then incubated for 3, 6, and 12 h at the same conditions as before and for 12 h at 4 °C. The culture media was recovered to a new tube (supernatant fraction) and cells were detached from the T-flask with 2 mL of TripLE Express (TE) (Gibco by life technologies) and centrifuged at 750 × g for 5 min. Then, fresh aqua regia was added to the supernatant tube and to the cellular fractions and incubated overnight at room temperature (RT) in the hood fume. Samples were delivered to Laboratório de Análises/LAQV and the levels of cobalt were evaluated by ICP-AES.

[3] = test system: A2780 cells; assay: Cell cycle progression (PI flow cytometry, double thymidine block); assay type: cell-based, human; settings: A2780, 24 h; complexes at IC50, DOX 0.4 μM, cisplatin 5 μM
Method: The interference of the copper complexes 2–4 in the cell cycle progression was evaluated in A2780 cells, seeded in 6-weel plates, with a density of 2 × 10^5 cells/well, and incubated for 8 h at the same conditions as described above. After that incubation time, the cells were synchronized in early S-phase with a 2 mM thymidine solution (Sigma, St. Louis, USA) for a 16 h period. Media with thymidine was replaced by fresh media and, after 8 h, another 2 mM thymidine solution was added to the wells (double thymidine block) and incubated for 16 h. […] Cells were incubated for 9, 18, or 24 h, and, at each hour, the cells were treated with TE and centrifuges at 650 × g for 5 min at 4 °C. The pellet was resuspended in PBS 1× and centrifuged at 3000 × g for 5 min at 4 °C. Later, the pellet was resuspended in 100 μL of PBS 1×, and 1 mL of a solution of 80% (v/v) ethanol was gently added to the cells. Cells were stored at 4 °C for at least 12 h and then centrifuged for 10 min at 7500 × g at 4 °C, treated with 250 μL of 50 μg/mL RNase A, and incubated for 30 min at 37 °C. After incubation, 100 μL of PI (25 μg/mL) was added to the cells as well as 650 μL of PBS 1×. The DNA content was evaluated on an Attune Acoustic Focusing Flow Cytometer (ThermoFisher Scientific) and results were analyzed by the respective software.

[4] = test system: A2780 (human ovarian carcinoma) cell line; assay: Antiproliferative activity, MTS assay, A2780; assay type: cell-based; settings: for IC50: 48 h exposure, MTS assay; for Selectivity index (SI), A2780: IC50 fibroblasts/IC50 A2780, values with * calculated taking fibroblast IC50 as 100 μM (minimal value)
Method: as §1, §2

[5] = Octanol-water partition coefficient, shake-flask method; assay type: physicochemical; settings: room temperature
Method: The lipophilicity of the CoCp complexes was estimated by the shake-flask method.[54] Before the assays, n-octanol was vigorously mixed with distilled water for 24 h at room temperature to promote solvent saturation of both phases. After separating the phases, the complexes were dissolved in the n-octanol phase to obtain solutions 1.0 × 10^–5 to 2.5 × 10^–4 M. Then, each solution was equilibrated with water for 4 h in a mechanical shaker, at a phase ratio of 2 mL n-octanol:2 mL water. Afterward, the aqueous and octanol layers were carefully separated by centrifugation (5000 rpm, 10 min), and the UV–vis absorption spectra of the complexes were recorded in the n-octanol phase. For each sample, the concentration was determined by using a calibration curve in n-octanol. All experiments were performed in triplicate for each complex, being the averages used for calculation purposes. Finally, the values of the partition coefficients were calculated by resorting to the following eq (eq 1): [drawing 1] 1 where logPoct/water represents the octanol–water partition coefficient, [complex]oct represents the concentration of the complex in the n-octanol phase, and [complex]water represents the concentration of the complex in the water phase.

SMILES	IC50 [1]	Percentage of internalization, 3 h at 37 °C [2]	Percentage of internalization, 6 h at 37 °C [2]	Percentage of internalization, 12 h at 37 °C [2]	% of cells in the G2/M phase [3]	IC50 [4]	Selectivity index (SI), A2780 [4]	logP (n-octanol/water partition coefficient) [5]
Cc1ccnc(-c2cc(C)ccn2)c1.O=S(=O)([O-])C(F)(F)F.O=S(=O)([O-])C(F)(F)F.[Co+3].c1cc[cH-]c1.c1ccc(P(c2ccccc2)c2ccccc2)cc1 [Complex 2, [Co(η^5-C5H5)(PPh3)(Me2bipy)][(CF3SO3)2]]	> 100 µM	40.6% ± 2.0	50.7% ± 3.3	92.6% ± 6.5	34.1%	6.1 ± 0.1 µM	16.4*	−0.56 ± 0.02
O=S(=O)([O-])C(F)(F)F.O=S(=O)([O-])C(F)(F)F.[Co+3].c1cc[cH-]c1.c1ccc(P(c2ccccc2)c2ccccc2)cc1.c1cnc2c(c1)ccc1cccnc12 [Complex 3, [Co(η^5-C5H5)(PPh3)(phen)][(CF3SO3)2]]	> 100 µM	49.7% ± 3.5	31.9% ± 10.2	76.9% ± 15.9	20.7%	6.2 ± 0.1 µM	16.1*	−0.28 ± 0.05
Nc1cc2cccnc2c2ncccc12.O=S(=O)([O-])C(F)(F)F.O=S(=O)([O-])C(F)(F)F.[Co+3].c1cc[cH-]c1.c1ccc(P(c2ccccc2)c2ccccc2)cc1 [Complex 4, [CoCp(PPh3)(NH2phen)][(CF3SO3)2]]	> 100 µM	33.7% ± 2.7	43.6% ± 5.8	89.3% ± 10.6	28%	4.7 ± 0.09 µM	21.3*	−0.22 ± 0.03
